Experimental data published in patent US5532242A, “Piperazine derivatives as 5-HT receptors antagonists” (John Wyeth & Brother, Limited, priority 1992, dated 1996).

Legend:
5-HT1A receptor [1] = biological target: T1, 5-HT1A receptor (Rattus norvegicus, UniProt P19327); assay: 5-HT1A receptor binding activity in rat hippocampal membrane homogenate
T1 construct: rat hippocampal membrane homogenate; from tissue; host or cells: rat hippocampal membrane homogenate
T1 sequence (P19327 1-422): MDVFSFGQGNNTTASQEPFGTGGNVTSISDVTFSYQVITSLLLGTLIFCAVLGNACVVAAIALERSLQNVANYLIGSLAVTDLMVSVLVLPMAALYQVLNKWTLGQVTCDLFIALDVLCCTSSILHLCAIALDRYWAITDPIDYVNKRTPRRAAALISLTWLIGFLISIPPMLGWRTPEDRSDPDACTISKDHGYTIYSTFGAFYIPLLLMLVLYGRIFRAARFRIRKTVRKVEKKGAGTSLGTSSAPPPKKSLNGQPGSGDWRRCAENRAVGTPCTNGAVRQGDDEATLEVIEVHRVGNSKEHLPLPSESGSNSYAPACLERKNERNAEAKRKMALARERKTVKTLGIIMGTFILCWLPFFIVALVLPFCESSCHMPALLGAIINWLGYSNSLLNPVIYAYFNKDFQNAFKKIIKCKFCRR
Experimental: The compounds of the invention were tested for 5-HT1A receptor binding activity in rat hippocampal membrane homogenate by the method of B S Alexander and M D Wood, J Pharm Pharmacol, 1988, 40, 888-891.

5-HT1A receptor [2] = biological target: T2, 5-HT1A receptor (Cavia porcellus, UniProt A0A286Y074); assay: 5-HT1A receptor antagonism: antagonism of 5-carboxamidotryptamine in the guinea-pig ileum in vitro; details: read-out: pA2 (converted)
T2 construct: guinea-pig ileum in vitro; from tissue; host or cells: guinea-pig ileum
T2 sequence (A0A286Y074 1-421): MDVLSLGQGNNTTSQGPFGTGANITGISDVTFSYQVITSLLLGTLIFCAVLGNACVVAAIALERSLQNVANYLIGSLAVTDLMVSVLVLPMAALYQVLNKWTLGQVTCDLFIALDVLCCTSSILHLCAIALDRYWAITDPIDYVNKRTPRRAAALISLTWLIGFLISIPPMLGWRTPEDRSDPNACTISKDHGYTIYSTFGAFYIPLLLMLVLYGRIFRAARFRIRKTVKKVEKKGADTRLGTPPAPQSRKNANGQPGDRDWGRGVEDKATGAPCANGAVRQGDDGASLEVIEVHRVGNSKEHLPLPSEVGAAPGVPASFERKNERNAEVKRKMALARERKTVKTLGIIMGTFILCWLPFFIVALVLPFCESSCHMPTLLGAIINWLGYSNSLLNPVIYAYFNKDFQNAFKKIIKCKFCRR
Experimental: The compounds are tested for 5-HT1A receptor antagonism activity in a test involving the antagonism of 5-carboxamidotryptamine in the guinea-pig ileum in vitro (based upon the procedure of Fozard et al, Br J Pharmac, 1985, 86, 601P ).

IC50 (5-HT1A receptor [1]): 4 nM | Kb (5-HT1A receptor [2]): 6.31 nM
Structure (SMILES): COc1ccccc1N1CCN(CCN(C(=O)C2CCCCC2)c2ccccc2)CC1 [Example 2, N-(2-(4-(2-Methoxyphenyl)piperazin-1-yl)ethyl)-N-phenylcyclohexanecarboxamide]
